Measured values published in patent publication US20110236318A1, “ANIMAL MODEL OF AN EJACULATION-LIKE REFLEX” (ASTELLAS PHARMA INC., priority 2010, published 2011).

What was measured:
[1] = tested on: ejaculatory latency; conditions: male rat copulatory behavior study, reported previously; cited from earlier work
[2] = tested on: ejaculation-like reflex; assay: Ejaculation-like reflex induced by urethral occlusion by a bend at the penile base; type: in vivo, rat; conditions: anesthetized spinal cord-transected male SD rats; 1.0 mg/kg iv; occlusion 10 minutes after dosing; vs pre values; N=3
Description: Male SD rats of 300-450 g body weight (Charles River) were used under urethane anesthesia (1.2 g/kg, s.c., ACROS Organic). The skin and muscle on the back were incised to expose the 7th-9th thoracic vertebra. The vertebra on the back side was removed to expose the spinal cord, which was cut at the 8th-10th thoracic vertebra. Gelfoam (Pfizer) was imbedded in the cut site and the muscle and skin were sutured.
The neck skin and muscle were incised, and catheters (Intramedic polyethylene tube No. 50; Becton Dickinson) were inserted into the carotid and jugular vein for measuring the blood pressure and administering a drug, respectively. The other end of the carotid catheter was connected to a pressure transducer (CDXIII Transducer, Argon Medical Devices).
The lower abdominal region was subjected to median incision to expose the bladder. […] The pressure transducers connecting to the catheter inserted into the carotid […] and the catheter inserted into the proximal urethra were connected to a distortion pressure amplifier (Transbridge 4M, World Precision Instruments) installed in a polygraph system (RPS321RM, GRASS Technologies), and the blood pressure and urethral pressure were measured by a Power Labosystem (ML880 and LabChart version 6, AD Instruments) with a lapse of time. […]

Compound: CCCN(CCC)C1CCc2cccc(O)c2C1 (stereo not drawn) [8-OH-DPAT]
- ejaculatory latency [1]: shorten the ejaculatory latency
- latency from the start of occlusion until the first ejaculation-like reflex [2]: shortened the latency of the first ejaculation-like reflex
- threshold urethra pressure immediately before the first ejaculation-like reflex [2]: reduced the threshold urethra pressure
